Experimental data as given in patent US20210315810A1, “COMPOSITION CONTAINING A MUCOLYTIC AGENT FOR THE TREATMENT OF MUCUS HYPERSECRETION AND A DEVICE FOR THE DOSING THEREOF” (SOFAR S.P.A., priority 2018, published 2021).

Experiment: Viscosity of cystic fibrosis mucus before and after incubation with Compositions 5-12 (Experimental Part II)
Set-up: species or system human
Conditions: mucus from patients, in vitro

Structure (SMILES): CC(=O)N[C@@H](CS)C(=O)O [N-acetylcysteine, 2R-acetamido-3-sulfanylpropanoic acid]
- Effect on viscosity of bronchial mucus (in words): effective at reducing the viscosity of bronchial mucus
